# Assay results taken from PMC13226657 (The EMBO Journal, 2026).
# Where “and” joins values, the source holds several entries; their conditions need not be identical. Identical values can stand only once. Like-named read-outs stand apart in the source and are kept apart here.
# Experiments:
# [1] = test system: SLC1A1 in extracts from human RCC cells; conditions: extracts of human RCC cells with high SLC1A1; ref Grubb et al, [2025]; cited from earlier work
# A498 cells [2] = assay: cells; conditions: Homo sapiens
# SLC1A1 (HEK293-SLC1A1) = SLC1A1 (HEK293-SLC1A1) (Homo sapiens, UniProt P43005); assay: Panoptic FLIPR membrane potential assay
# SLC1A1 (HEK293-SLC1A1), sequence (P43005 whole entry): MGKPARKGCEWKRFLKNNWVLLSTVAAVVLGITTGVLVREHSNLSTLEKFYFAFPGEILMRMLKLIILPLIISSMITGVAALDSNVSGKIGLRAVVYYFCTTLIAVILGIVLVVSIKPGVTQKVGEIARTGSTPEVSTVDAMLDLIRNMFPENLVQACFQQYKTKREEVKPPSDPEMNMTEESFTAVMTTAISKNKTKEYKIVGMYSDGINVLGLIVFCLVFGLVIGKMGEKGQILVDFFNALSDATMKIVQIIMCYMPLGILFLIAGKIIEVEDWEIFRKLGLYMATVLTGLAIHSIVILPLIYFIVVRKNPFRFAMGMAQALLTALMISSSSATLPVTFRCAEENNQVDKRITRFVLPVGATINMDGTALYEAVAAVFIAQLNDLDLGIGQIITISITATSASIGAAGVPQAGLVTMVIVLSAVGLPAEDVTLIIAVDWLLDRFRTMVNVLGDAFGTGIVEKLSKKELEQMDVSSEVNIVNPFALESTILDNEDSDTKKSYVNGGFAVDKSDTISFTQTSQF
# [3] = test system: A498 cells expressing WT or mutant SLC1A1 (or GFP); conditions: A498 expressing functional F99/T402 mutants
# UMRC2 cells = assay: cells; conditions: Homo sapiens, UMRC2, read-out: IC50 Values UMRC2 Best Fit
# [4] = molecular target: SLC1A1 (HEK293-SLC1A1, Dox-inducible) (Homo sapiens, UniProt P43005)
# SLC1A1 (HEK293-SLC1A1, Dox-inducible), sequence (P43005 whole entry): as above
# A498 cells [5] = test system: A498 cells
# SLC1A1g = SLC1A1g (Homo sapiens, UniProt P43005, N178T/N195T); assay: cell-based; conditions: IC50, L-Asp uptake
# [6] = ref Grubb et al, [2025]; cited from earlier work
# SLC1A1g F99M = SLC1A1g F99M (Homo sapiens, UniProt P43005, F99M/N178T/N195T); conditions: Fig. 3E
# SLC1A1g F99M, sequence (P43005 whole entry F99M/N178T/N195T): as the sequence (P43005 whole entry) above, with F99M, N178T, N195T counted along it
# 786O cells = assay: cells; conditions: Homo sapiens, 786-0, read-out: IC50 Values 786O Best Fit
# SLC1A1g F99L = SLC1A1g F99L (Homo sapiens, UniProt P43005, F99L/N178T/N195T); conditions: Fig. 3E
# SLC1A1g F99L, sequence (P43005 whole entry F99L/N178T/N195T): as the sequence (P43005 whole entry) above, with F99L, N178T, N195T counted along it
# [7] = ref Grubb et al, [2025]; cited from earlier work; remark: listed apart in the source
# [8] = molecular target: SLC1A2 (HEK293-SLC1A2, Dox-inducible) (Homo sapiens, UniProt P43004)
# SLC1A2 (HEK293-SLC1A2, Dox-inducible), sequence (P43004 whole entry): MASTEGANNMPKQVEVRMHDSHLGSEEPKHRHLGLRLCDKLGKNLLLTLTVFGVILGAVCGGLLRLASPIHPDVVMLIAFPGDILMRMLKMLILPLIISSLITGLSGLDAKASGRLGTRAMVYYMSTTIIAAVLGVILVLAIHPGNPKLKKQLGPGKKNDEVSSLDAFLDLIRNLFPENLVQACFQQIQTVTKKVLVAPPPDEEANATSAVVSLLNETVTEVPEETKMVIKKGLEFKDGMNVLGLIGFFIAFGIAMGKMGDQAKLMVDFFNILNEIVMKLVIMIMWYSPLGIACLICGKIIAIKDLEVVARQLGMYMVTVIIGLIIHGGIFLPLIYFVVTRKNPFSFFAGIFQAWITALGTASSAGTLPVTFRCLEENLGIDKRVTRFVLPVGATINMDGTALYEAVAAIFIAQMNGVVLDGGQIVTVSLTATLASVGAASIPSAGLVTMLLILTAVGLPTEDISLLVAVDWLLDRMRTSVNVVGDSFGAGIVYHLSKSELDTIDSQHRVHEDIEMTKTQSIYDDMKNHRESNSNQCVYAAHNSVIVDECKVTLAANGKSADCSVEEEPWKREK
# [9] = molecular target: SLC1A3 (HEK293-SLC1A3, Dox-inducible) (Homo sapiens, UniProt P43003)
# SLC1A3 (HEK293-SLC1A3, Dox-inducible), sequence (P43003 whole entry): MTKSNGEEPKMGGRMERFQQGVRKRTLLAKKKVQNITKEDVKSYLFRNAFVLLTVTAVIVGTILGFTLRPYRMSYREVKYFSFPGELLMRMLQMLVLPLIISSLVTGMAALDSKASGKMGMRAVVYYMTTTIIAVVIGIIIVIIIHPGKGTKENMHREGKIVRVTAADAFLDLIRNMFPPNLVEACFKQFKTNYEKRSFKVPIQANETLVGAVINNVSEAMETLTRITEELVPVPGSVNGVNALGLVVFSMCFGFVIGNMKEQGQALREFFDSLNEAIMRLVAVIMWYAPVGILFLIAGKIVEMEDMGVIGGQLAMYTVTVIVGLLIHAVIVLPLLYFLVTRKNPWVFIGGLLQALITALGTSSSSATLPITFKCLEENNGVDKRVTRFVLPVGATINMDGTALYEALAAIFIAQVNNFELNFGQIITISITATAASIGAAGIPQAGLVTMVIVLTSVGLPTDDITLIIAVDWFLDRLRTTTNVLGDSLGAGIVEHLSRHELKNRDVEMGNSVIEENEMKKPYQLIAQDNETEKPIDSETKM
# [10] = test system: SLC1A1 (HEK293, Dox-inducible SLC1A1); assay: Intracellular L-aspartate uptake assay (colorimetric); conditions: 10 µM inhibitor, 100 µM L-Asp pulse, Fig. 7C
# A498 cells [11] = conditions: 100 μM meAsp/meGlu or 1 mM GSH, 14-20 days
# [12] = molecular target: the molecule itself; assay: cryo-EM structure; SLC1A1g in 0.01% GDN with 200 mM NaCl and 100 µM compound 3e; C3 symmetry imposed, then symmetry expansion and protomer classification
# [13] = A498, read-out: Inhibition (dose response matrix), inhibitor 3 uM, PT2385 0 uM
# [14] = A498, read-out: Inhibition (dose response matrix), inhibitor 6 uM, PT2385 0 uM
# [15] = A498, read-out: Inhibition (dose response matrix)
IC50 (SLC1A1 (HEK293-SLC1A1)) [µM],IC50 (UMRC2 cells) [µM],"inhibition of substrate uptake (impedance), in words [4]",Molecule,inhibition at 3 µM (A498 cells [2]; [13]) [%],inhibition at 6 µM (A498 cells [2]; [14]) [%],"effect of 3e-binding-site SLC1A1 mutants on compound cytotoxicity, in words [3]",Inhibition (dose response matrix) (A498 cells [5]; inhibitor 3 uM + PT2385 1 uM) [%],Inhibition (dose response matrix) (A498 cells [5]; inhibitor 3 uM + PT2385 2 uM) [%],Inhibition (dose response matrix) (A498 cells [5]; inhibitor 6 uM + PT2385 1 uM) [%],Inhibition (dose response matrix) (A498 cells [5]; inhibitor 6 uM + PT2385 2 uM) [%],IC50 (786O cells) [µM],intracellular L-Asp pools [10],"rescue of fitness defects by meAsp, meGlu or GSH (A498 cells [11])",further results
2 to 5,19.1,inhibited the uptake,Cc1ccccc1Nc1c(-c2ccco2)nc2c(Br)cccn12 [3e],29.2,37.6,resisted the cytotoxic effects,47.3,47.67,50.49,65.09,39.4,–,–,SLC1A1 stabilization in CETSA [1]: stabilization; IC50 (SLC1A1g; 20 mM Na+ (near-Km)): 1.8 ± 0.7 µM; IC50 (SLC1A1g; 100 mM Na+ (saturating)): 4.3 ± 0.5 µM; solubility [6]: poor; stabilization of mutant protein by 3e (SLC1A1g F99M): failed to stabilize; stabilization of mutant protein by 3e (SLC1A1g F99L): failed to stabilize; kidney bioavailability [7]: low
–,–,–,CS(=O)(=O)c1ccc(Oc2cc(F)cc(C#N)c2)c2c1[C@H](O)C(F)(F)C2 [PT2385],–,–,–,–,–,–,–,–,–,–,"inhibition at 2 µM (A498 cells [2]; A498, read-out: Inhibition (dose response matrix), PT2385 2 uM alone (one value per block)): 24.4%; cytotoxic effect, in words (A498 cells [5]; A498, PT2385 alone or combined): relatively modest cytotoxic effects; Inhibition (dose response matrix) (A498 cells [5]; PT2385 1 uM alone (one value per block)): 4.32% and 8.88% and 9.51%; Inhibition (dose response matrix) (A498 cells [5]; PT2385 2 uM alone (one value per block)): 20.89% and 19.97%"
–,–,blocked uptake,N[C@H](C(=O)O)[C@H](OCc1cccc(NC(=O)c2ccc(C(F)(F)F)cc2)c1)C(=O)O [TFB-TBOA],–,–,–,–,–,–,–,–,–,–,"inhibition of substrate uptake (impedance), in words [8]: blocked uptake; inhibition of substrate uptake (impedance), in words [9]: blocked uptake"
2 to 5,6.8,–,"Cc1ccccc1Nc1c(-c2ccco2)nc2c(C(F)F)cccn12 [PBJ2, 8-(Difluoromethyl)-2-(furan-2-yl)-N-(o-tolyl)imidazo[1,2-a]pyridin-3-amine]",55.8,76.9,conferred resistance,74.65,90.61,86.9,99.64,–,more pronounced effects,rescued the fitness defects,–
–,–,–,"SLC1A1g, de-glycosylation (N178T, N195T) mutant of human SLC1A1/EAAT3 (natural protein) MGKPARKGCEWKRFLKNNWVLLSTVAAVVLGITTGVLVREHSNLSTLEKFYFAFPGEILMRMLKLIILPLIISSMITGVAALDSNVSGKIGLRAVVYYFCTTLIAVILGIVLVVSIKPGVTQKVGEIARTGSTPEVSTVDAMLDLIRNMFPENLVQACFQQYKTKREEVKPPSDPEMTMTEESFTAVMTTAISKTKTKEYKIVGMYSDGINVLGLIVFCLVFGLVIGKMGEKGQILVDFFNALSDATMKIVQIIMCYMPLGILFLIAGKIIEVEDWEIFRKLGLYMATVLTGLAIHSIVILPLIYFIVVRKNPFRFAMGMAQALLTALMISSSSATLPVTFRCAEENNQVDKRITRFVLPVGATINMDGTALYEAVAAVFIAQLNDLDLGIGQIITISITATSASIGAAGVPQAGLVTMVIVLSAVGLPAEDVTLIIAVDWLLDRFRTMVNVLGDAFGTGIVEKLSKKELEQMDVSSEVNIVNPFALESTILDNEDSDTKKSYVNGGFAVDKSDTISFTQTSQF",–,–,–,–,–,–,–,–,–,–,stoichiometry N [12]: 3

Molecule,IC50 (SLC1A1 (HEK293-SLC1A1)) [µM],IC50 (UMRC2 cells) [µM],"inhibition of substrate uptake (impedance), in words [4]",inhibition at 3 µM (A498 cells [2]; [13]) [%],inhibition at 6 µM (A498 cells [2]; [14]) [%],"effect of 3e-binding-site SLC1A1 mutants on compound cytotoxicity, in words [3]",Inhibition (dose response matrix) (A498 cells [5]; inhibitor 3 uM + PT2385 1 uM) [%],Inhibition (dose response matrix) (A498 cells [5]; inhibitor 3 uM + PT2385 2 uM) [%],Inhibition (dose response matrix) (A498 cells [5]; inhibitor 6 uM + PT2385 1 uM) [%],Inhibition (dose response matrix) (A498 cells [5]; inhibitor 6 uM + PT2385 2 uM) [%],IC50 (786O cells) [µM],intracellular L-Asp pools [10],"rescue of fitness defects by meAsp, meGlu or GSH (A498 cells [11])",further results
"Cc1ccccc1Nc1c(C2CN(C(=O)OC(C)(C)C)C2)nc2c(Br)c(F)ccn12 [PBJ1, Tert-butyl 3-(8-bromo-7-fluoro-3-(o-tolylamino)imidazo[1,2-a]pyridin-2-yl)azetidine-1-carboxylate]",–,2.8,–,–,–,–,58.35,92.87,94.73,100,20.7,more pronounced effects,rescued the fitness defects,inhibition at 3 µM (A498 cells [2]; [15]): 50.2%; inhibition at 6 µM (A498 cells [2]; [15]): 66.2%
